Assay results: ChEMBL document CHEMBL1177734, “Novel tacrine-8-hydroxyquinoline hybrids as multifunctional agents for the treatment of Alzheimer's disease, with neuroprotective, cholinergic, antioxidant, and copper-complexing properties” (J Med Chem, 2010)
Activity calls are given as the source filed them. The calls are words filed in the database; no cut-off is given here.

How the values were obtained:
[1] = target: Cholinesterase (Equus caballus, UniProt P81908)
Description: Inhibition of horse serum BChE by Ellman's reaction

[2] = target: T1, Acetylcholinesterase (Bos taurus, UniProt P23795)
T1 sequence (P23795 whole entry): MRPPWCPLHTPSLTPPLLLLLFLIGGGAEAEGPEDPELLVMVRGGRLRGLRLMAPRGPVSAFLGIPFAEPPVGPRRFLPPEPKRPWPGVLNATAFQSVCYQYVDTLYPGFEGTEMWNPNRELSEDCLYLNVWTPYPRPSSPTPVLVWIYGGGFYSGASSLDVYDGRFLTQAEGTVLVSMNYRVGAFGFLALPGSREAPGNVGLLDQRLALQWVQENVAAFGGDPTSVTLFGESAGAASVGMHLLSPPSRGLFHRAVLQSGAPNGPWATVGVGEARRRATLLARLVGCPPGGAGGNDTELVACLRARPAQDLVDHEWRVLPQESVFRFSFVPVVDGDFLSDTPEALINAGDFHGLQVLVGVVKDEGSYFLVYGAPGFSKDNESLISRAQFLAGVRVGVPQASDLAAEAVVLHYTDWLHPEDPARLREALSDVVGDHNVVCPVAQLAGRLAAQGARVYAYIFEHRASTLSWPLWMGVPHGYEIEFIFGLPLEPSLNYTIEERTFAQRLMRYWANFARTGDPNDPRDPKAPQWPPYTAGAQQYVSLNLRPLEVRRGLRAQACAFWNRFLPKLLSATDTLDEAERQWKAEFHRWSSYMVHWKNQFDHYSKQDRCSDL
Description: Inhibition of bovine erythrocyte AChE by Ellman's reaction

[3] = Permeability by PAMPA method; format: ADME; settings: read-out: permeability
[4] = target: Cholinesterase (Homo sapiens, UniProt P06276)
Chain of Cholinesterase (Homo sapiens, UniProt P06276) (P06276 whole entry): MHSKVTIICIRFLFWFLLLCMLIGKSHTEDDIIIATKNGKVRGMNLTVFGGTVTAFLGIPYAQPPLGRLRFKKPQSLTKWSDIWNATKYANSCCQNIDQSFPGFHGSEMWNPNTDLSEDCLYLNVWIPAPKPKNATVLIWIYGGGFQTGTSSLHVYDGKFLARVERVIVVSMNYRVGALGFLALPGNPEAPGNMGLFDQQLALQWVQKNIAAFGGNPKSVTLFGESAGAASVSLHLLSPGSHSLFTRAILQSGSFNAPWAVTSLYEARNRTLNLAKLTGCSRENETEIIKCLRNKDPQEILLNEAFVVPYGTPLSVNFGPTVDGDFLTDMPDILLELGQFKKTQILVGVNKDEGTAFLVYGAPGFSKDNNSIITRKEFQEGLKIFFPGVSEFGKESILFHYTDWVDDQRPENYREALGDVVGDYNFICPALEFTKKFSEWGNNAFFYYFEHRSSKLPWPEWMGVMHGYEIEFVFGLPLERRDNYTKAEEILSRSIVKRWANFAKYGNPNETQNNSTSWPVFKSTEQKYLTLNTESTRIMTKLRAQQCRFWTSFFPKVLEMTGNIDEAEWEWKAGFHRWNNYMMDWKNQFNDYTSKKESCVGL
Description: Inhibition of human serum BChE by Ellman's reaction

[5] = target: Acetylcholinesterase (Homo sapiens, UniProt P22303)
Chain of Acetylcholinesterase (Homo sapiens, UniProt P22303) (P22303 whole entry): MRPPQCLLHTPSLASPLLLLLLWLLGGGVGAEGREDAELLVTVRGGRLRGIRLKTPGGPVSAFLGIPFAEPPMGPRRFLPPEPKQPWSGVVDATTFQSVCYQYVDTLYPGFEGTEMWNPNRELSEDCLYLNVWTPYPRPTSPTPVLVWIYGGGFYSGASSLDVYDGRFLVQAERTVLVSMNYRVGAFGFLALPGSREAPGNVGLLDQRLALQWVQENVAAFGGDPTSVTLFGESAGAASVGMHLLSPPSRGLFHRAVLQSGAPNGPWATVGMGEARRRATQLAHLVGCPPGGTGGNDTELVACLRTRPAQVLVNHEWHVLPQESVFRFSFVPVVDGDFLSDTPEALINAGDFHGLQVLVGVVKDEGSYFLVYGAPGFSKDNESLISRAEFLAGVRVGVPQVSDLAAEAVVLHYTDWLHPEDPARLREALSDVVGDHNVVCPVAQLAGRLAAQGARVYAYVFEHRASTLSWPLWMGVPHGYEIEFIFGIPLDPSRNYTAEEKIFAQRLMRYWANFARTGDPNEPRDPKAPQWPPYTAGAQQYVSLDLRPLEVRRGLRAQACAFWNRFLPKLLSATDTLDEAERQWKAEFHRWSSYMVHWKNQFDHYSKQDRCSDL
Description: Inhibition of human erythrocyte AChE by Ellman's reaction

[6] = test system: SH-SY5Y; assay: Neuroprotective activity against rotenone-induced cell death in human SH-SY5Y cells assessed as lactate dehydrogenase release at 3 uM after 24 hrs; format: functional
[7] = Metal chelating activity assessed as formation of copper complex in Tris buffer at pH 7.4 at 22.5 uM after 1 min by UV-vis spectrometry; format: functional
[8] = Metal chelating activity assessed as formation of copper complex in Tris buffer at pH 7.4 at 22.5 uM by UV-vis spectrometry; format: functional
[9] = test system: SH-SY5Y; assay: Cytotoxicity against human SH-SY5Y cells assessed as lactate dehydrogenase release at 3 uM after 24 hrs; format: cell-based
[10] = Metal chelating activity assessed as formation of iron complex in Tris buffer at pH 7.4 at 22.5 uM after 30 mins by UV-vis spectrometry; format: functional

Chain of Cholinesterase (Equus caballus, UniProt P81908) (P81908 whole entry): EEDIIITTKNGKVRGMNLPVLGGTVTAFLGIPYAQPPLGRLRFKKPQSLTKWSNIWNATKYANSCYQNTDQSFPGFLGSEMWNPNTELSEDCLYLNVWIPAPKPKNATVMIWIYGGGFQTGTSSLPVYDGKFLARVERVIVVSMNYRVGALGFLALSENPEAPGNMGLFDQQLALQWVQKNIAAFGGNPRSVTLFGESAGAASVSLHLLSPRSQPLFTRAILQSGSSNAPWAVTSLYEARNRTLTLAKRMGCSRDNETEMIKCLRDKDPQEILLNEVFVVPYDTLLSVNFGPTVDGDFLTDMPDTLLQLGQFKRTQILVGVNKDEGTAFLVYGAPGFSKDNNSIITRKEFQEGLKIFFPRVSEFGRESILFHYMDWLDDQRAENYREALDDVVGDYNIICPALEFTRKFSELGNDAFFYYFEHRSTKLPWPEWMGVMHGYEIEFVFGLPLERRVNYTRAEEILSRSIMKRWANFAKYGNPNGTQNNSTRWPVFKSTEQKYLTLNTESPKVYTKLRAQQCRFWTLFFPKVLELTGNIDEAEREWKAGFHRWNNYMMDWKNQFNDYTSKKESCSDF

Compound: Cc1ccc2ccc(CNCCCCCCCCCCNc3c4c(nc5ccccc35)CCCC4)c(O)c2n1
- IC50 [1]: 7 nM
- IC50 [2]: 70 nM

Compound: Oc1c(CNCCCCCCCCCCNc2c3c(nc4ccccc24)CCCC3)cc(Cl)c2cccnc12
- IC50 [2]: 100 nM

Compound: Oc1c(CNCCCCCCCCCCCCNc2c3c(nc4ccccc24)CCCC3)cc(Cl)c2cccnc12
- IC50 [2]: 400 nM

Compound: Oc1c(CNCCCCCCCCCCCCNc2c3c(nc4ccccc24)CCCC3)ccc2cccnc12
- IC50 [2]: 250 nM

Compound: Cc1ccc2ccc(CNCCCCCCCCCNc3c4c(nc5ccccc35)CCCC4)c(O)c2n1
- IC50 [2]: 100 nM

Compound: Cl.Cl.Cl.Oc1c(CNCCCCCCCCCNc2c3c(nc4ccccc24)CCCC3)cc(Cl)c2cccnc12
- Papp [3]: 10 ×10⁻⁶ cm/s
- IC50 [4]: 55 nM
- IC50 [5]: 1 nM
- IC50 [1]: 6.5 nM
- IC50 [2]: 85 nM

Compound: CN(CCCNCc1cc(Cl)c2cccnc2c1O)CCCNc1c2c(nc3ccccc13)CCCC2
- IC50 [1]: 30 nM
- IC50 [2]: 90 nM

Compound: Oc1c(CNCCCCCCNc2c3c(nc4ccccc24)CCCC3)ccc2cccnc12
- IC50 [2]: 200 nM

Compound: Oc1cccc2cccnc12 [OXYQUINOLINE]
- IC50 [4]: > 100 nM
- IC50 [5]: > 100 nM

Compound: Oc1c(CNCCCCCCCCNc2c3c(nc4ccccc24)CCCC3)ccc2cccnc12
- IC50 [1]: 30 nM
- IC50 [2]: 90 nM

Compound: Oc1c(CNCCCCCCCNc2c3c(nc4ccccc24)CCCC3)ccc2cccnc12
- IC50 [1]: 150 nM
- IC50 [2]: 25 nM

Compound: Cl.Cl.Oc1c(CNCCCCCCCCCNc2c3c(nc4ccccc24)CCCC3)ccc2cccnc12
- Activity [6]: 30%
- Activity [7]: inactive
- Activity [8]: Active
- Papp [3]: 17.4 ×10⁻⁶ cm/s
- Activity [9]: Toxic
- Activity [10]: inactive
- IC50 [4]: 20 nM
- IC50 [5]: 5.5 nM
- IC50 [1]: 5 nM
- IC50 [2]: 20 nM

Compound: Cc1ccc2ccc(CNCCCN(C)CCCNc3c4c(nc5ccccc35)CCCC4)c(O)c2n1
- IC50 [2]: 200 nM

Compound: Cc1ccc2ccc(CNCCCCCCCNc3c4c(nc5ccccc35)CCCC4)c(O)c2n1
- IC50 [2]: 200 nM

Compound: CN(CCCNCc1ccc2cccnc2c1O)CCCNc1c2c(nc3ccccc13)CCCC2
- IC50 [1]: 50 nM
- IC50 [2]: 80 nM

Compound: Oc1c(CNCCCCCCCCCCNc2c3c(nc4ccccc24)CCCC3)ccc2cccnc12
- IC50 [1]: 65 nM
- IC50 [2]: 50 nM

Compound: Cc1ccc2ccc(CNCCCCCCCCNc3c4c(nc5ccccc35)CCCC4)c(O)c2n1.Cl.Cl
- Papp [3]: 14.1 ×10⁻⁶ cm/s
- IC50 [4]: 6.5 nM
- IC50 [5]: 0.5 nM
- IC50 [1]: 2 nM
- IC50 [2]: 75 nM

Compound: Oc1c(CNCCCCCCCCNc2c3c(nc4ccccc24)CCCC3)cc(Cl)c2cccnc12
- IC50 [2]: 150 nM
